Data from EPA's ToxRefDB 2.

Experiments:
[1] = test system: rat; conditions: Subchronic dermal toxicity, fischer, Topical, dose end: 13 week, group: systemic
[2] = test system: dog; conditions: Subchronic oral toxicity in nonrodent, beagle, Feed, dose end: 90 day, group: systemic
[3] = test system: rat; conditions: Multigenerational reproductive toxicity study, sprague dawley, Oral, Feed, dose end: 2 generation
[4] = test system: mouse; conditions: Subchronic oral toxicity in rodents, b6c3f1, Feed, dose end: 14 week, group: systemic, systemic / clinical chemistry / bilirubin / total bilirubin + systemic / clinical chemistry / cholesterol / cholesterol + systemic / …
[5] = test system: mouse; conditions: Carcinogenicity; b6c3f1; Oral; Feed; dose end: 2 year; group: systemic; systemic / organ weight / kidney / nos + systemic / pathology microscopic / kidney / vacuolization + systemic / organ weight / kidney / …
[6] = test system: rabbit; conditions: Prenatal developmental toxicity study, other, Oral, Gavage/Intubation, dose end: 18 GD
[7] = test system: rat; conditions: Subchronic oral toxicity in rodents, wistar, Feed, dose end: 90 day, group: systemic
[8] = test system: dog; conditions: Chronic toxicity; beagle; Oral; Feed; dose end: 52 week; group: systemic; systemic / hematology / erythrocyte (rbc) count differential / erythrocyte (rbc) + systemic / hematology / heinz body / heinz body + …
[9] = test system: rat; conditions: Combined chronic toxicity/carcinogenicity, wistar, Oral, Feed, dose end: 24 month, group: systemic
[10] = test system: rat; conditions: Subchronic oral toxicity in rodents, sprague dawley, Feed, dose end: 13 week, group: systemic, systemic / in life observation / body weight / body weight + systemic / in life observation / body weight / body weight gain + systemic / in…
[11] = test system: rat; conditions: Combined chronic toxicity/carcinogenicity; sprague dawley; Oral; Feed; dose end: 104 week; group: systemic; systemic / pathology microscopic / adrenal gland / hypertrophy + systemic / pathology microscopic / skeletal muscle / malformation + …
[12] = test system: rat; conditions: Subchronic oral toxicity in rodents, fischer, Feed, dose end: 13 week, group: systemic
[13] = test system: dog; conditions: Chronic toxicity, beagle, Oral, [Not Specified], dose end: 52 week, group: systemic
[14] = test system: mouse; conditions: Combined chronic toxicity/carcinogenicity; b6c3f1; Oral; Feed; dose end: 2 year; group: systemic; systemic / in life observation / body weight / body weight
[15] = test system: rat; conditions: Prenatal developmental toxicity study, sprague dawley, Oral, Gavage/Intubation, dose end: 15 GD
[16] = test system: rat; conditions: Prenatal developmental toxicity study; wistar; Oral; Feed; dose end: 15 GD; group: maternal; systemic / in life observation / body weight / body weight gain + systemic / in life observation / food consumption / food consumption
[17] = test system: mouse; conditions: Subchronic oral toxicity in rodents, b6c3f1, Feed, dose end: 13 week, group: systemic
[18] = test system: mouse; conditions: Carcinogenicity, cd1, Oral, Feed, dose end: 80 week, group: systemic
[19] = test system: rat; conditions: Combined chronic toxicity/carcinogenicity; fischer; Oral; Feed; dose end: 104 week; group: systemic; systemic / organ weight / skeletal muscle / absolute + systemic / organ weight / skeletal muscle / relative to body weight + systemic / …
[20] = test system: rat; conditions: Prenatal developmental toxicity study, sprague dawley, Oral, Gavage/Intubation, dose end: 5 GD, group: developmental
[21] = test system: rat; conditions: Combined chronic toxicity/carcinogenicity, fischer, Oral, Feed, dose end: 2 year, group: systemic
[22] = test system: rat; conditions: Prenatal developmental toxicity study, sprague dawley, Oral, Gavage/Intubation, dose end: 15 GD; remark: listed apart in the source
[23] = test system: rat; conditions: Multigenerational reproductive toxicity study, sprague dawley, Oral, Feed, dose end: 2 generation; remark: listed apart in the source
[24] = systemic / pathology microscopic / skin / inflammation
[25] = systemic / pathology microscopic / skin / inflammation + systemic / in life observation / clinical signs / desquamation + systemic / in life…
[26] = systemic / hematology / heinz body / heinz body
[27] = systemic / hematology / heinz body / heinz body + systemic / clinical chemistry / alkaline phosphatase (alp/alk) / alkaline phosphatase (alp…
[28] = group: offspring, systemic / in life observation / body weight / offspring (pup) weight
[29] = group: offspring, systemic / in life observation / body weight / offspring (pup) weight + developmental / offspring survival late / [other] / [other]
[30] = group: parental, systemic / clinical chemistry / alkaline phosphatase (alp/alk) / alkaline phosphatase (alp/alk) + systemic / clinical chemistry / creatinine…
[31] = group: developmental, developmental / developmental malformation / bone / unossified + systemic / in life observation / body weight / fetal weight
[32] = group: maternal, systemic / in life observation / body weight / body weight gain + systemic / in life observation / clinical signs / scybala + systemic / in …
[33] = systemic / clinical chemistry / alanine aminotransferase (alt/sgpt) / alanine aminotransferase (alt/sgpt) + systemic / in life observation…
[34] = systemic / organ weight / liver / absolute + systemic / organ weight / liver / relative to body weight
[35] = systemic / clinical chemistry / lactic acid dehydrogenase (ldh) / lactic acid dehydrogenase (ldh)
[36] = systemic / in life observation / body weight / body weight gain
[37] = systemic / in life observation / body weight / body weight gain + systemic / in life observation / mortality / mortality + systemic / in …
[38] = systemic / clinical chemistry / alanine aminotransferase (alt/sgpt) / alanine aminotransferase (alt/sgpt) + systemic / clinical chemistry / …
[39] = systemic / organ weight / ovary / absolute + systemic / organ weight / uterus / absolute
[40] = group: developmental, developmental / developmental malformation / diaphragm / diaphragmatic thinning
[41] = group: developmental, developmental / developmental malformation / diaphragm / diaphragmatic thinning + systemic / in life observation / body weight / fetal …
[42] = group: maternal, systemic / in life observation / body weight / body weight + systemic / in life observation / clinical signs / salivation + systemic / in …
[43] = systemic / in life observation / body weight / body weight + systemic / pathology microscopic / liver / hypertrophy
[44] = systemic / in life observation / body weight / body weight gain + systemic / organ weight / brain / absolute + systemic / pathology …
[45] = developmental / developmental malformation / bone / ossification sites + developmental / developmental malformation / general / [other] + …
[46] = systemic / pathology microscopic / eye / retinopathy
[47] = systemic / pathology microscopic / thyroid gland / adenoma/carcinoma combined + systemic / pathology microscopic / thyroid gland / carcinoma…
[48] = group: developmental, developmental / developmental malformation / bone / ossification sites + developmental / developmental malformation / general / [other] + …
[49] = group: maternal, systemic / in life observation / body weight / body weight gain
[50] = group: maternal, systemic / in life observation / body weight / body weight gain + reproductive / reproductive performance / postimplantation loss / …
[51] = group: parental, systemic / in life observation / body weight / body weight + systemic / in life observation / body weight / body weight gain + systemic / in…

`CCCCCCCCCCSCCN.Cl` [2-(Decylthio)ethanamine hydrochloride] was tested, and the LOAEL [1, 24] was 1 mg/kg/day, the NOAEL [1, 24] was less than 1 mg/kg/day and the LEL [1, 25] was 1 mg/kg/day. It also gave an NEL [1, 25] of less than 1 mg/kg/day.

For `CC1(C(=O)Nc2ccc(O)c(Cl)c2Cl)CCCCC1` [Fenhexamid], the LEL [2, 26] was 239 mg/kg/day, the LOAEL [2, 26] was 239 mg/kg/day and the NEL [2, 27] was 33.9 mg/kg/day. It also gave an NOAEL [2, 27] of 33.9 mg/kg/day, an LEL [3, 28] of 406 mg/kg/day and an LOAEL [3, 28] of 406 mg/kg/day. For the same compound, the NEL [3, 29] was 38.2 mg/kg/day, the NOAEL [3, 29] was 38.2 mg/kg/day and the LEL [3, 30] was 406 mg/kg/day. It also gave an LOAEL [3, 30] of 406 mg/kg/day, an NEL [3, 30] of 38.2 mg/kg/day and an NOAEL [3, 30] of 38.2 mg/kg/day. The LEL [4] was 3280 mg/kg/day, the LOAEL [4] was 3280 mg/kg/day and the NEL [4] was 266 mg/kg/day. The NOAEL [4] was 266 mg/kg/day, the LEL [5] was 807 mg/kg/day and the LOAEL [5] was 807 mg/kg/day. For the same compound, the NEL [5] was 247 mg/kg/day, the NOAEL [5] was 247 mg/kg/day and the LEL [6, 31] was 1000 mg/kg/day. It also gave an LOAEL [6, 31] of 1000 mg/kg/day, an NEL [6, 31] of 300 mg/kg/day and an NOAEL [6, 31] of 300 mg/kg/day. The LEL [6, 32] was 300 mg/kg/day, the LOAEL [6, 32] was 300 mg/kg/day and the NEL [6, 32] was 100 mg/kg/day. The NOAEL [6, 32] was 100 mg/kg/day, the LOAEL [7, 33] was 904 mg/kg/day and the NOAEL [7, 33] was 415 mg/kg/day. For the same compound, the LEL [7, 34] was 202 mg/kg/day, the NEL [7, 34] was less than 202 mg/kg/day and the LEL [8] was 124 mg/kg/day. For the same compound, the LOAEL [8] was 124 mg/kg/day, the NEL [8] was 17.4 mg/kg/day and the NOAEL [8] was 17.4 mg/kg/day. For the same compound, the LEL [9, 35] was 28 mg/kg/day, the NEL [9, 35] was less than 28 mg/kg/day and the NOAEL ([9]; systemic / clinical chemistry / lactic acid dehydrogenase (ldh) / lactic acid dehydrogenase (ldh) + systemic / pathology microscopic / …) was 28 mg/kg/day. For the same compound, the LOAEL ([9]; systemic / pathology microscopic / intestine large / hyperplasia + systemic / pathology microscopic / spleen / hematopoietic cell …) was 292 mg/kg/day.

In the case of `CN(C)C(=S)[S-].CN(C)C(=S)[S-].[Zn+2]` [Ziram], the LEL [10] is reported as 21.4 mg/kg/day, the LOAEL [10] is reported as 21.4 mg/kg/day and the NEL [10] is reported as 7.4 mg/kg/day. It also gave an NOAEL [10] of 7.4 mg/kg/day, an LEL [11] of 2.5 mg/kg/day and an LOAEL [11] of 2.5 mg/kg/day. It also gave an NEL [11] of less than 2.5 mg/kg/day, an NOAEL [11] of less than 2.5 mg/kg/day and an LEL [12, 36] of 31.3 mg/kg/day. For the same compound, the LOAEL [12, 37] was greater than 313 mg/kg/day, the NEL [12, 37] was 16.3 mg/kg/day and the NOAEL [12, 37] was no less than 313 mg/kg/day. The LOAEL [13, 38] was 6.6 mg/kg/day, the NOAEL [13, 38] was 1.6 mg/kg/day and the LEL [13, 39] was 1.9 mg/kg/day. The NEL [13, 39] was less than 1.9 mg/kg/day, the LEL [14] was 122 mg/kg/day and the LOAEL [14] was 122 mg/kg/day. The NEL [14] was less than 122 mg/kg/day, the NOAEL [14] was less than 122 mg/kg/day and the LEL [15, 40] was 16 mg/kg/day. For the same compound, the LOAEL [15, 40] was 16 mg/kg/day, the NEL [15, 41] was 4 mg/kg/day and the NOAEL [15, 41] was 4 mg/kg/day. For the same compound, the LEL [15, 42] was 16 mg/kg/day, the LOAEL [15, 42] was 16 mg/kg/day and the NEL [15, 42] was 4 mg/kg/day. For the same compound, the NOAEL [15, 42] was 4 mg/kg/day, the LEL [16] was 12.5 mg/kg/day and the LOAEL [16] was greater than 25 mg/kg/day. The NEL [16] was 6.25 mg/kg/day, the NOAEL [16] was no less than 25 mg/kg/day and the LEL [17, 36] was 80 mg/kg/day. For the same compound, the NEL [17, 36] was less than 80 mg/kg/day, the LOAEL [17, 37] was greater than 1590 mg/kg/day and the NOAEL [17, 37] was no less than 1590 mg/kg/day. For the same compound, the LEL [18, 43] was 3 mg/kg/day, the NEL [18, 43] was less than 3 mg/kg/day and the LOAEL [18, 44] was 27 mg/kg/day. It also gave an NOAEL [18, 44] of 9 mg/kg/day, an LEL [19] of 6.9 mg/kg/day and an LOAEL [19] of 6.9 mg/kg/day. The NEL [19] was 0.7 mg/kg/day, the NOAEL [19] was 0.7 mg/kg/day and the LOAEL [20, 45] was greater than 100 mg/kg/day. It also gave an NEL [20, 45] of 25 mg/kg/day, an NOAEL [20, 45] of no less than 100 mg/kg/day and an LEL ([20]; systemic / in life observation / body weight / fetal weight) of 50 mg/kg/day. It also gave an LEL [21, 46] of 13 mg/kg/day, an NEL [21, 46] of less than 13 mg/kg/day and an LOAEL [21, 47] greater than 22 mg/kg/day. It also gave an NOAEL [21, 47] of no less than 22 mg/kg/day, an LOAEL [22, 48] greater than 100 mg/kg/day and an NEL [22, 48] of 12.5 mg/kg/day. It also gave an NOAEL [22, 48] of no less than 100 mg/kg/day, an LEL ([22]; group: developmental, systemic / in life observation / body weight / fetal weight) of 25 mg/kg/day and an LEL [22, 49] of 12.5 mg/kg/day. It also gave an NEL [22, 49] of less than 12.5 mg/kg/day, an LOAEL [22, 50] greater than 100 mg/kg/day and an NOAEL [22, 50] of no less than 100 mg/kg/day. For the same compound, the LEL [23, 28] was 42.7 mg/kg/day, the LOAEL [23, 28] was 42.7 mg/kg/day and the NEL [23, 28] was 16.7 mg/kg/day. The NOAEL [23, 28] was 16.7 mg/kg/day, the LEL [23, 51] was 37.5 mg/kg/day and the LOAEL [23, 51] was 37.5 mg/kg/day. The NEL [23, 51] was 14.8 mg/kg/day and the NOAEL [23, 51] was 14.8 mg/kg/day.
